Where two headings read alike, the source gives them in different places.
Experiments:
KLK7 [1] = target: KLK7
KLK7 [2] = target: KLK7; remark: listed apart in the source
Description: Head of the field: Ki [nM]
In contrast to the first generation, they contain only two cysteines cyclized with one linker. The K values are shown as mean of three measurements ±SD.
First copying reader's note: The two cysteines are bridged by a drawn acetone (C=O) linker shown above the sequence columns; the Ki cells hold the value ± its error against KLK7.

Substance P C L Y L S C P [compound 089] has a Ki (KLK7 [1]) of 50 ± 5 nM.

P C L Y L S R C S [compound 095] gave a Ki (KLK7 [2]) of 90 ± 7 nM.

Work on P C L Y M A R C S [compound 111] yielded a Ki (KLK7 [2]) of 10 ± 1.3 nM.

— patent US20220267379A1, “NOVEL INHIBITORS OF […] AND USES THEREOF” (Ecole Polytechnique Federale de Lausanne (EPFL), priority 2019, published 2022)
